We go through two molecules from PMC10279920, “Single-molecule visualization of Pif1 helicase translocation on single-stranded DNA” (The Journal of Biological Chemistry, 2023).

In data set [1] the target is T1, GFP-Pif1 (Saccharomyces cerevisiae, UniProt P07271, V385A).
T1 construct: N-terminal superfolder GFP fusion of nuclear isoform residues 40-859, pRSF-Duet-1, E. coli Rosetta2(DE3), Ni-NTA purified
T1 sequence (P07271 40-859 V385A): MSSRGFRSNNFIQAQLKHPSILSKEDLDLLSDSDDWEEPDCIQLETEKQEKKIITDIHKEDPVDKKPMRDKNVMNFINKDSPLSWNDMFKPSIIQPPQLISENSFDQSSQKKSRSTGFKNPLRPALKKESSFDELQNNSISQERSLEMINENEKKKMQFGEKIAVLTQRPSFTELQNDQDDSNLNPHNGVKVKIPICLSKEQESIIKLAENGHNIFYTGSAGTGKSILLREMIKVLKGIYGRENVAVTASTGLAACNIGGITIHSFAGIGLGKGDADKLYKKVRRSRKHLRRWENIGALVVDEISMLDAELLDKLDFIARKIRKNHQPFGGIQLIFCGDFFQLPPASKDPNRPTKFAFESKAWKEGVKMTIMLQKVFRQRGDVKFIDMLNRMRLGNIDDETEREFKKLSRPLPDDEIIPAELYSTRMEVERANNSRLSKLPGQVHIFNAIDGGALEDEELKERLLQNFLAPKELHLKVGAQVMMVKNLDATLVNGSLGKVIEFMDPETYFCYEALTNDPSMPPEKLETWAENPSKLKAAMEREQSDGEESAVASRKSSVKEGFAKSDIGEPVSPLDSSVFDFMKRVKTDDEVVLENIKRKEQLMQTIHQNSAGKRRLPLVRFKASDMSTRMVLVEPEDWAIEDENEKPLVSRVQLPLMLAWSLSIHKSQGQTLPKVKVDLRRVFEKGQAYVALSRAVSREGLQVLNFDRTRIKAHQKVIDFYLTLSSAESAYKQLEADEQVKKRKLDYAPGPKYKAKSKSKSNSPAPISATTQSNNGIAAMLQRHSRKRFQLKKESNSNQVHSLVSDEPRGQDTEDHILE
The experiment in a line: ATP hydrolysis, [γ-32P]-ATP TLC, Michaelis-Menten fit. Type of data set: biochemical. Conditions: M13 ssDNA 1.5 μM nt, 10 nM Pif1, 5 mM MgCl2, 60 mM KCl, pH 7.5, 30 °C, no RPA; labelled compound as tracer.

Data set [2] concerns the target T2, GFP-Pif1 (Saccharomyces cerevisiae, UniProt P07271, G291P).
T2 construct: N-terminal superfolder GFP fusion of nuclear isoform residues 40-859, pRSF-Duet-1, E. coli Rosetta2(DE3), Ni-NTA purified
T2 sequence (P07271 40-859 G291P): T1 sequence (P07271 40-859 V385A) with G252P, A346V
The data set is described as above. The format is biochemical. Particulars: M13 ssDNA 1.5 μM nt, 10 nM Pif1, 5 mM MgCl2, 60 mM KCl, pH 7.5, 30 °C, no RPA; labelled compound as tracer.

For the next data set, the target named is T3, GFP-Pif1 T301A (Saccharomyces cerevisiae, UniProt P07271 40-859, T301A).
T3 sequence: T1 sequence (P07271 40-859 V385A) with T262A, A346V
Put plainly: EMSA; no ATP, 5 mM Mg2+; up to 50 nM; 35 mM Tris-HCl pH 7.5, 1 mM DTT, 5 mM MgCl2, 60 mM KCl, 0.1 mg/ml BSA, no ATP, 30 min at 30 C; 5 nM ssDNA. Particulars: protein: recombinant; tags: N-terminal superfolder GFP; Ni-NTA purified; label: 5' Alexa647. For orientation: In EMSA bound probe runs differently from free probe, usually more slowly.

Positions count from the first letter of the chain named.

For the molecule `Nc1ncnc2c1ncn2[C@@H]1O[C@H](COP(=O)(O)OP(=O)(O)OP(=O)(O)O)[C@@H](O)[C@H]1O` [ATP], the Km at GFP-Pif1 [1] came to 1280 ± 540 µM; on GFP-Pif1 [2], 760 ± 290 µM.
Turning to GCTAGCAGTAGCCAGCATCGAACGTACGATCGGTAACGTA (ssDNA) [40-nt ssDNA], the binding result with GFP-Pif1 T301A is on record as “no binding”.

A word on the Km: it is the substrate concentration at which the rate is half of its maximum.
